Test results taken from patent US20210024649A1, “Methods and Compositions for Antibody and Antibody-loaded Dendritic Cell Mediated Therapy” (The Board of Trustees of the Leland Stanford Junior …, priority 2014, published 2021).

Tested on: tumor-associated DC (TADC)
Assay: TADC cultured with alloIgG-IC with or without stimuli
Type: cell-based, mouse
Settings: stimulus added to TADC with alloIgG-IC
Method: BM mononuclear cells were negatively selected using a murine monocyte enrichment kit (Stem Cell Technologies, Vancouver Canada), and FSC^lo/SSC^lo/Gr1^hi/CD115^hi/MHCII^neg cells were sorted with a FACS Aria II (BD Biosciences). Monocytes were cultured for 4-5 days in the presence of 50 ng/ml GM-CSF (PeproTech) to generate DC. For TADC, tumors were digested in Hank's balanced salt solution (HBSS, Gibco) containing 5 mg/mL collagenase IV and 0.01 mg/mL DNase I (Sigma). Cells were applied on a Ficoll gradient and magnetically enriched using CD11b^+ selection kits (StemCells) and Gr1^neg/CD11c^+/MHCII^+ cells were sorted by FACS. In some experiments TADC were activated with 50 ng/mL TNFα (PeproTech) and 500 ng/mL CD40L (PeproTech) recombinant mouse proteins.
To resolve this apparent discrepancy, tumor-associated DC (TADC) (FIG. 7a) were obtained and cultured these cells with tumor lysates or alloIgG-IC. […] Since the expression pattern of Fcγ receptors on TADC was similar to that of BMDC, and several immune stimuli are known to induce MAPK activation in DC, the effect of such stimuli on the response of TADC to allogG-IC was tested.

polyinosinic:polycytidylic acid [poly I:C]
activation of TADC and uptake of alloIgG-IC: enabled activation of TADC as well as uptake of alloIgG-IC
